Experimental data taken from PubChem BioAssay (NCI).
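Where inhibition never reached the appropriate level, the endpoint shown equals the highest concentration tested. Otherwise, values were interpolated linearly from a five-concentration, 48-hour dose response in 96-well plates. GI50 is the concentration that inhibits growth by half. TGI: concentration producing complete growth inhibition.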

test system: HL-60(TB) leukemia; test: NCI tumour cell line growth inhibition, 48 h

| SMILES | GI50 [µM] | TGI [µM] |
| --- | --- | --- |
| OC(c1cc2cc(Cl)c(Cl)cc2c2cc(C(F)(F)F)ccc12)C1CCCCN1 (centres undefined) | 2.28 | 4.07 |

test system: HOP-62 NSCLC; test: NCI tumour cell line growth inhibition, 48 h

| SMILES | TGI [µM] | GI50 [µM] |
| --- | --- | --- |
| COc1cc(C2C3=C(COC3=O)Oc3cc4c(cc32)OCO4)cc(OC)c1OC(C)=O (centres undefined) | > 100 | – |
| Nc1ccc(-c2nc3ccccc3[nH]2)c2ccccc12 | > 100 | 6.16 |
| COc1ccc2c(c1OC)C(=O)OC2C1c2c(c([N+](=O)[O-])c3c(c2OC)OCO3)CCN1C (centres undefined) | > 100 | > 100 |
| COC1O[C@@H]2C[C@H]3C(C)(C)CCC[C@]3(C)C3=CCCC1[C@@]32C (some centres undefined) | > 100 | > 100 |

test system: HOP-92 NSCLC; test: NCI tumour cell line growth inhibition, 48 h

| SMILES | GI50 [µM] | TGI [µM] |
| --- | --- | --- |
| Nc1ccc(-c2nc3ccccc3[nH]2)c2ccccc12 | 1.57 | 9.61 |
| CC(=O)c1c(-c2cccc3ccccc23)c(C#N)c(=S)n(C2OC(CO)C(O)C(O)C2O)c1-c1ccccc1 (centres undefined) | – | > 100 |
| COC1O[C@@H]2C[C@H]3C(C)(C)CCC[C@]3(C)C3=CCCC1[C@@]32C (some centres undefined) | > 100 | > 100 |

test system: HS 578T breast; test: NCI tumour cell line growth inhibition, 48 h

| SMILES | GI50 [µM] | TGI [µM] |
| --- | --- | --- |
| Nc1ccc(-c2nc3ccccc3[nH]2)c2ccccc12 | 3.5 | > 30 |
| COc1ccc2c(c1OC)C(=O)OC2C1c2c(c([N+](=O)[O-])c3c(c2OC)OCO3)CCN1C (centres undefined) | > 100 | > 100 |
| OC(c1cc2cc(Cl)c(Cl)cc2c2cc(C(F)(F)F)ccc12)C1CCCCN1 (centres undefined) | 1.54 | 3.27 |
| COC1O[C@@H]2C[C@H]3C(C)(C)CCC[C@]3(C)C3=CCCC1[C@@]32C (some centres undefined) | > 100 | > 100 |

test system: HT29 colon; test: NCI tumour cell line growth inhibition, 48 h

| SMILES | GI50 [µM] | TGI [µM] |
| --- | --- | --- |
| Nc1ccc(-c2nc3ccccc3[nH]2)c2ccccc12 | 1.49 | 14.6 |
| COc1ccc2c(c1OC)C(=O)OC2C1c2c(c([N+](=O)[O-])c3c(c2OC)OCO3)CCN1C (centres undefined) | 28.7 | > 100 |
| COC1O[C@@H]2C[C@H]3C(C)(C)CCC[C@]3(C)C3=CCCC1[C@@]32C (some centres undefined) | > 100 | > 100 |

test system: IGROV1 ovarian; test: NCI tumour cell line growth inhibition, 48 h

| SMILES | TGI [µM] | GI50 [µM] |
| --- | --- | --- |
| COc1cc(C2C3=C(COC3=O)Oc3cc4c(cc32)OCO4)cc(OC)c1OC(C)=O (centres undefined) | 10.9 | – |
| Nc1ccc(-c2nc3ccccc3[nH]2)c2ccccc12 | 42.6 | 3.36 |
| COC1O[C@@H]2C[C@H]3C(C)(C)CCC[C@]3(C)C3=CCCC1[C@@]32C (some centres undefined) | > 100 | > 100 |

test system: K-562 leukemia; test: NCI tumour cell line growth inhibition, 48 h

| SMILES | TGI [µM] | GI50 [µM] |
| --- | --- | --- |
| COc1cc(C2C3=C(COC3=O)Oc3cc4c(cc32)OCO4)cc(OC)c1OC(C)=O (centres undefined) | > 100 | – |
| Nc1ccc(-c2nc3ccccc3[nH]2)c2ccccc12 | > 100 | 2.54 |
| COC1O[C@@H]2C[C@H]3C(C)(C)CCC[C@]3(C)C3=CCCC1[C@@]32C (some centres undefined) | > 100 | > 100 |

test system: KM12 colon; test: NCI tumour cell line growth inhibition, 48 h

| SMILES | TGI [µM] | GI50 [µM] |
| --- | --- | --- |
| COc1cc(C2C3=C(COC3=O)Oc3cc4c(cc32)OCO4)cc(OC)c1OC(C)=O (centres undefined) | > 100 | – |
| Nc1ccc(-c2nc3ccccc3[nH]2)c2ccccc12 | 16.1 | 1.92 |
| COc1ccc2c(c1OC)C(=O)OC2C1c2c(c([N+](=O)[O-])c3c(c2OC)OCO3)CCN1C (centres undefined) | > 100 | > 100 |
| COC1O[C@@H]2C[C@H]3C(C)(C)CCC[C@]3(C)C3=CCCC1[C@@]32C (some centres undefined) | > 100 | > 100 |

test system: LOX IMVI melanoma; test: NCI tumour cell line growth inhibition, 48 h

| SMILES | TGI [µM] | GI50 [µM] |
| --- | --- | --- |
| COc1cc(C2C3=C(COC3=O)Oc3cc4c(cc32)OCO4)cc(OC)c1OC(C)=O (centres undefined) | > 24.1 | – |
| Nc1ccc(-c2nc3ccccc3[nH]2)c2ccccc12 | 48.1 | 4.97 |
| COc1ccc2c(c1OC)C(=O)OC2C1c2c(c([N+](=O)[O-])c3c(c2OC)OCO3)CCN1C (centres undefined) | > 100 | > 100 |
| COC1O[C@@H]2C[C@H]3C(C)(C)CCC[C@]3(C)C3=CCCC1[C@@]32C (some centres undefined) | > 100 | > 100 |

test system: M14 melanoma; test: NCI tumour cell line growth inhibition, 48 h

| SMILES | TGI [µM] | GI50 [µM] |
| --- | --- | --- |
| COc1cc(C2C3=C(COC3=O)Oc3cc4c(cc32)OCO4)cc(OC)c1OC(C)=O (centres undefined) | > 100 | – |
| Nc1ccc(-c2nc3ccccc3[nH]2)c2ccccc12 | 17.6 | 2.73 |
| COc1ccc2c(c1OC)C(=O)OC2C1c2c(c([N+](=O)[O-])c3c(c2OC)OCO3)CCN1C (centres undefined) | > 100 | > 100 |
| COC1O[C@@H]2C[C@H]3C(C)(C)CCC[C@]3(C)C3=CCCC1[C@@]32C (some centres undefined) | > 100 | > 100 |

test system: MALME-3M melanoma; test: NCI tumour cell line growth inhibition, 48 h

| SMILES | TGI [µM] | GI50 [µM] |
| --- | --- | --- |
| COc1cc(C2C3=C(COC3=O)Oc3cc4c(cc32)OCO4)cc(OC)c1OC(C)=O (centres undefined) | > 100 | – |
| Nc1ccc(-c2nc3ccccc3[nH]2)c2ccccc12 | 21.6 | 1.36 |
| COc1ccc2c(c1OC)C(=O)OC2C1c2c(c([N+](=O)[O-])c3c(c2OC)OCO3)CCN1C (centres undefined) | > 100 | > 100 |
| COC1O[C@@H]2C[C@H]3C(C)(C)CCC[C@]3(C)C3=CCCC1[C@@]32C (some centres undefined) | > 100 | > 100 |

test system: MCF7 breast; test: NCI tumour cell line growth inhibition, 48 h

| SMILES | TGI [µM] | GI50 [µM] |
| --- | --- | --- |
| COc1cc(C2C3=C(COC3=O)Oc3cc4c(cc32)OCO4)cc(OC)c1OC(C)=O (centres undefined) | > 51.6 | – |
| Nc1ccc(-c2nc3ccccc3[nH]2)c2ccccc12 | > 100 | 2.38 |
| COc1ccc2c(c1OC)C(=O)OC2C1c2c(c([N+](=O)[O-])c3c(c2OC)OCO3)CCN1C (centres undefined) | > 100 | > 100 |
| COC1O[C@@H]2C[C@H]3C(C)(C)CCC[C@]3(C)C3=CCCC1[C@@]32C (some centres undefined) | > 100 | > 100 |

test system: MDA-MB-231 breast; test: NCI tumour cell line growth inhibition, 48 h

| SMILES | GI50 [µM] | TGI [µM] |
| --- | --- | --- |
| Nc1ccc(-c2nc3ccccc3[nH]2)c2ccccc12 | 8.16 | > 41.7 |
| COc1ccc2c(c1OC)C(=O)OC2C1c2c(c([N+](=O)[O-])c3c(c2OC)OCO3)CCN1C (centres undefined) | > 100 | > 100 |
| COC1O[C@@H]2C[C@H]3C(C)(C)CCC[C@]3(C)C3=CCCC1[C@@]32C (some centres undefined) | > 100 | > 100 |

test system: MDA-MB-435; test: NCI tumour cell line growth inhibition, 48 h

| SMILES | GI50 [µM] | TGI [µM] |
| --- | --- | --- |
| Nc1ccc(-c2nc3ccccc3[nH]2)c2ccccc12 | 0.198 | 0.812 |
| COc1ccc2c(c1OC)C(=O)OC2C1c2c(c([N+](=O)[O-])c3c(c2OC)OCO3)CCN1C (centres undefined) | > 100 | > 100 |
| COC1O[C@@H]2C[C@H]3C(C)(C)CCC[C@]3(C)C3=CCCC1[C@@]32C (some centres undefined) | > 100 | > 100 |

test system: MOLT-4 leukemia; test: NCI tumour cell line growth inhibition, 48 h

| SMILES | TGI [µM] | GI50 [µM] |
| --- | --- | --- |
| COc1cc(C2C3=C(COC3=O)Oc3cc4c(cc32)OCO4)cc(OC)c1OC(C)=O (centres undefined) | > 100 | – |
| Nc1ccc(-c2nc3ccccc3[nH]2)c2ccccc12 | > 100 | 3.44 |
| OC(c1cc2cc(Cl)c(Cl)cc2c2cc(C(F)(F)F)ccc12)C1CCCCN1 (centres undefined) | 3.32 | 1.59 |
| COC1O[C@@H]2C[C@H]3C(C)(C)CCC[C@]3(C)C3=CCCC1[C@@]32C (some centres undefined) | > 100 | > 100 |

test system: NCI-H226 lung; test: NCI tumour cell line growth inhibition, 48 h

| SMILES | GI50 [µM] | TGI [µM] |
| --- | --- | --- |
| Nc1ccc(-c2nc3ccccc3[nH]2)c2ccccc12 | 8.44 | 37.9 |
